Reference: patent publication US8895561B2, “Compounds and methods for treating candidiasis and aspergillus infections” (Cellceutix Corporation, priority 2012, dated 2014)
pEC50: −log10 of the molar value. Values after ≈ are worked out from the molar mass of the structure shown.

Tested on: E. faecalis 29212
Test: Bacterial MIC, broth microdilution, CLSI
Type: cell-based
Details: Enterococcus faecalis, 29212; read-out: EF (MIC)
Description: (§1) Candida IC50s were determined by OD600 and fluorescence from vegetative cells and by MTS viability assay in the hyphal state. MICs were determined using a broth microdilution assay under standard CLSI conditions Bacteria strains: E. coli 25922 (EC), S. aureus 27660 (SA), E. faecalis 29212 (EF), P. aeruginosa 10145 (PA), and K. pneumoniae 13883 (KP). Cytotoxicity (EC50) was determined against mouse 3T3 fibroblasts, human transformed liver HepG2 cells, and human oral keratinocyte cell line, OKF6/TERT using an MTS viability assay. Candida IC50s<10 μg/mL, MICs<5 μg/mL and cytotoxicity EC50s>100 μM are indicated in green. MICs>5 μg/mL and cytotoxicity EC50s<100 μM are indicated in red. Candida IC50s (CA) were determined by OD600 and fluorescence from vegetative cells. MICs were determined using a broth microdilution assay under standard CLSI conditions Bacteria strains: E. coli 25922 (EC), S. aureus 27660 (SA), E. faecalis 29212 (EF), P. aeruginosa 10145 (PA), and K. pneumoniae 13883 (KP). Cytotoxicity (EC50) was determined against mouse 3T3 fibroblasts and human transformed liver HepG2 cells using an MTS viability assay.

Structure (SMILES)	MIC
NCCCOc1cc(OCCCN)cc(-c2ccc3c4ccc(Br)cc4n(CCCN)c3c2)c1 [Compound 146]	0.39 µg/mL (≈ 0.742 µM)
CCn1c2ccc(-c3cc(OCCCN)cc(OCCCN)c3)cc2c2cc(-c3cc(OCCCN)cc(OCCCN)c3)ccc21 [Compound 147]	0.39 µg/mL (≈ 0.61 µM)
CCn1c2ccc(-c3cc(C(=O)NCCN)cc(C(=O)NCCN)c3)cc2c2cc(-c3cc(C(=O)NCCN)cc(C(=O)NCCN)c3)ccc21 [Compound 148]	> 50 µg/mL
NCCCn1c2cc(-c3cccc(O)c3)ccc2c2ccc(-c3cccc(O)c3)cc21 [Compound 149]	1.56 µg/mL (≈ 3.82 µM)
NCCCOc1cccc(-c2ccc3c4ccc(-c5cccc(OCCCN)c5)cc4n(CCCN)c3c2)c1 [Compound 150]	1.56 µg/mL (≈ 2.98 µM)
NCCCn1c2cc(-c3cccc(OCCN)c3)ccc2c2ccc(-c3cccc(OCCN)c3)cc21 [Compound 151]	6.25 µg/mL (≈ 12.6 µM)

Tested on: S. aureus 27660
Test: Bacterial MIC, broth microdilution, CLSI
Type: cell-based
Details: Staphylococcus aureus, 27660; read-out: SA (MIC)
Description: as §1

Structure (SMILES)	MIC
NCCCOc1cc(OCCCN)cc(-c2ccc3c4ccc(Br)cc4n(CCCN)c3c2)c1 [Compound 146]	0.39 µg/mL (≈ 0.742 µM)
CCn1c2ccc(-c3cc(OCCCN)cc(OCCCN)c3)cc2c2cc(-c3cc(OCCCN)cc(OCCCN)c3)ccc21 [Compound 147]	0.098 µg/mL (≈ 0.153 µM)
CCn1c2ccc(-c3cc(C(=O)NCCN)cc(C(=O)NCCN)c3)cc2c2cc(-c3cc(C(=O)NCCN)cc(C(=O)NCCN)c3)ccc21 [Compound 148]	3.13 µg/mL (≈ 4.52 µM)
NCCCn1c2cc(-c3cccc(O)c3)ccc2c2ccc(-c3cccc(O)c3)cc21 [Compound 149]	0.049 µg/mL (≈ 0.12 µM)
NCCCOc1cccc(-c2ccc3c4ccc(-c5cccc(OCCCN)c5)cc4n(CCCN)c3c2)c1 [Compound 150]	0.049 µg/mL (≈ 0.0937 µM)
NCCCn1c2cc(-c3cccc(OCCN)c3)ccc2c2ccc(-c3cccc(OCCN)c3)cc21 [Compound 151]	0.195 µg/mL (≈ 0.394 µM)

Tested on: P. aeruginosa 10145
Test: Bacterial MIC, broth microdilution, CLSI
Type: cell-based
Details: Pseudomonas aeruginosa, 10145; read-out: PA (MIC)
Description: as §1

Structure (SMILES)	MIC
NCCCOc1cc(OCCCN)cc(-c2ccc3c4ccc(Br)cc4n(CCCN)c3c2)c1 [Compound 146]	12.5 µg/mL (≈ 23.8 µM)
CCn1c2ccc(-c3cc(OCCCN)cc(OCCCN)c3)cc2c2cc(-c3cc(OCCCN)cc(OCCCN)c3)ccc21 [Compound 147]	6.25 µg/mL (≈ 9.77 µM)
CCn1c2ccc(-c3cc(C(=O)NCCN)cc(C(=O)NCCN)c3)cc2c2cc(-c3cc(C(=O)NCCN)cc(C(=O)NCCN)c3)ccc21 [Compound 148]	> 50 µg/mL
NCCCn1c2cc(-c3cccc(O)c3)ccc2c2ccc(-c3cccc(O)c3)cc21 [Compound 149]	> 100 µg/mL
NCCCOc1cccc(-c2ccc3c4ccc(-c5cccc(OCCCN)c5)cc4n(CCCN)c3c2)c1 [Compound 150]	3.13 µg/mL (≈ 5.99 µM)
NCCCn1c2cc(-c3cccc(OCCN)c3)ccc2c2ccc(-c3cccc(OCCN)c3)cc21 [Compound 151]	6.25 µg/mL (≈ 12.6 µM)

Tested on: E. coli 25922
Test: Bacterial MIC, broth microdilution, CLSI
Type: cell-based
Details: Escherichia coli, 25922; read-out: EC (MIC)
Description: as §1

Structure (SMILES)	MIC
NCCCOc1cc(OCCCN)cc(-c2ccc3c4ccc(Br)cc4n(CCCN)c3c2)c1 [Compound 146]	50 µg/mL (≈ 95.1 µM)
CCn1c2ccc(-c3cc(OCCCN)cc(OCCCN)c3)cc2c2cc(-c3cc(OCCCN)cc(OCCCN)c3)ccc21 [Compound 147]	1.56 µg/mL (≈ 2.44 µM)
CCn1c2ccc(-c3cc(C(=O)NCCN)cc(C(=O)NCCN)c3)cc2c2cc(-c3cc(C(=O)NCCN)cc(C(=O)NCCN)c3)ccc21 [Compound 148]	25 µg/mL (≈ 36.1 µM)
NCCCn1c2cc(-c3cccc(O)c3)ccc2c2ccc(-c3cccc(O)c3)cc21 [Compound 149]	3.13 µg/mL (≈ 7.66 µM)
NCCCOc1cccc(-c2ccc3c4ccc(-c5cccc(OCCCN)c5)cc4n(CCCN)c3c2)c1 [Compound 150]	0.78 µg/mL (≈ 1.49 µM)
NCCCn1c2cc(-c3cccc(OCCN)c3)ccc2c2ccc(-c3cccc(OCCN)c3)cc21 [Compound 151]	3.13 µg/mL (≈ 6.33 µM)

Tested on: C. albicans GDH2346
Test: Candida IC50, vegetative cells, by OD600 and fluorescence
Type: cell-based
Details: Candida albicans, GDH2346; vegetative cells; read-out: CA (Candida IC50)
Description: Candida IC50s were determined by OD600 and fluorescence from vegetative cells and by MTS viability assay in the hyphal state. MICs were determined using a broth microdilution assay under standard CLSI conditions Bacteria strains: E. coli 25922 (EC), S. aureus 27660 (SA), E. faecalis 29212 (EF), P. aeruginosa 10145 (PA), and K. pneumoniae 13883 (KP). Cytotoxicity (EC50) was determined against mouse 3T3 fibroblasts, human transformed liver HepG2 cells, and human oral keratinocyte cell line, OKF6/TERT using an MTS viability assay. Candida IC50s<10 μg/mL, MICs<5 μg/mL and cytotoxicity EC50s>100 μM are indicated in green. MICs>5 μg/mL and cytotoxicity EC50s<100 μM are indicated in red. Candida IC50s (CA) were determined by OD600 and fluorescence from vegetative cells. MICs were determined using a broth microdilution assay under standard CLSI conditions Bacteria strains: E. coli 25922 (EC), S. aureus 27660 (SA), E. faecalis 29212 (EF), P. aeruginosa 10145 (PA), and K. pneumoniae 13883 (KP). Cytotoxicity (EC50) was determined against mouse 3T3 fibroblasts and human transformed liver HepG2 cells using an MTS viability assay. For determination of anti-Candida IC50s, the method was modified by using RPMI/MOPS buffer pH 6.3 and by addition of FDGlu, a substrate for the yeast enzyme exoglucanase which is secreted during cell growth. This provides a fluorescent readout for cell growth which was used in addition to the traditional optical density measure of growth. OD600 and fluorescence were determined at 24 and 48 hours and the average of all 4 reads was used for the final IC50 determination.

Structure (SMILES)	IC50
NCCCOc1cc(OCCCN)cc(-c2ccc3c4ccc(Br)cc4n(CCCN)c3c2)c1 [Compound 146]	44.6 µg/mL (≈ 84.9 µM)
CCn1c2ccc(-c3cc(C(=O)NCCN)cc(C(=O)NCCN)c3)cc2c2cc(-c3cc(C(=O)NCCN)cc(C(=O)NCCN)c3)ccc21 [Compound 148]	8.74 µg/mL (≈ 12.6 µM)
NCCCn1c2cc(-c3cccc(O)c3)ccc2c2ccc(-c3cccc(O)c3)cc21 [Compound 149]	> 100 µg/mL
NCCCOc1cccc(-c2ccc3c4ccc(-c5cccc(OCCCN)c5)cc4n(CCCN)c3c2)c1 [Compound 150]	3.34 µg/mL (≈ 6.39 µM)
NCCCn1c2cc(-c3cccc(OCCN)c3)ccc2c2ccc(-c3cccc(OCCN)c3)cc21 [Compound 151]	3.85 µg/mL (≈ 7.78 µM)

Tested on: not listed separately
Test: Cytotoxicity, MTS viability assay
Type: cell-based, human
Details: human, HepG2 cells (transformed liver); read-out: HepG2 (cytotoxicity EC50)
Description: Candida IC50s were determined by OD600 and fluorescence from vegetative cells and by MTS viability assay in the hyphal state. MICs were determined using a broth microdilution assay under standard CLSI conditions Bacteria strains: E. coli 25922 (EC), S. aureus 27660 (SA), E. faecalis 29212 (EF), P. aeruginosa 10145 (PA), and K. pneumoniae 13883 (KP). Cytotoxicity (EC50) was determined against mouse 3T3 fibroblasts, human transformed liver HepG2 cells, and human oral keratinocyte cell line, OKF6/TERT using an MTS viability assay. Candida IC50s<10 μg/mL, MICs<5 μg/mL and cytotoxicity EC50s>100 μM are indicated in green. MICs>5 μg/mL and cytotoxicity EC50s<100 μM are indicated in red.
Candida IC50s (CA) were determined by OD600 and fluorescence from vegetative cells. MICs were determined using a broth microdilution assay under standard CLSI conditions Bacteria strains: E. coli 25922 (EC), S. aureus 27660 (SA), E. faecalis 29212 (EF), P. aeruginosa 10145 (PA), and K. pneumoniae 13883 (KP). Cytotoxicity (EC50) was determined against mouse 3T3 fibroblasts and human transformed liver HepG2 cells using an MTS viability assay.
CLSI conditions Bacteria strains: clinical isolates; yeast strains: C. dubliniensis (NCPF3949), C. glabrata (ATCC 90030), C. krusei (ATCC 6258), C. parapsilosis (ATCC 22019), and C. tropicalis (ATCC 750). Cytotoxicity (EC50) was determined against mouse 3T3 fibroblasts, human transformed liver HepG2 cells, and human oral keratinocyte cell line, OKF6/TERT using an MTS viability assay.

Structure (SMILES)	pEC50
NCCCOc1cc(OCCCN)cc(-c2ccc3c4ccc(Br)cc4n(CCCN)c3c2)c1 [Compound 146]	3.47
CCn1c2ccc(-c3cc(C(=O)NCCN)cc(C(=O)NCCN)c3)cc2c2cc(-c3cc(C(=O)NCCN)cc(C(=O)NCCN)c3)ccc21 [Compound 148]	3.51
NCCCn1c2cc(-c3cccc(O)c3)ccc2c2ccc(-c3cccc(O)c3)cc21 [Compound 149]	4.70
NCCCOc1cccc(-c2ccc3c4ccc(-c5cccc(OCCCN)c5)cc4n(CCCN)c3c2)c1 [Compound 150]	4.24
NCCCn1c2cc(-c3cccc(OCCN)c3)ccc2c2ccc(-c3cccc(OCCN)c3)cc21 [Compound 151]	4.11

Same assay, conditions: mouse, 3T3 fibroblasts; read-out: 3T3 (cytotoxicity EC50)

Structure (SMILES)	pEC50
NCCCOc1cc(OCCCN)cc(-c2ccc3c4ccc(Br)cc4n(CCCN)c3c2)c1 [Compound 146]	3.51
CCn1c2ccc(-c3cc(C(=O)NCCN)cc(C(=O)NCCN)c3)cc2c2cc(-c3cc(C(=O)NCCN)cc(C(=O)NCCN)c3)ccc21 [Compound 148]	3.35
NCCCn1c2cc(-c3cccc(O)c3)ccc2c2ccc(-c3cccc(O)c3)cc21 [Compound 149]	4.54
NCCCOc1cccc(-c2ccc3c4ccc(-c5cccc(OCCCN)c5)cc4n(CCCN)c3c2)c1 [Compound 150]	4.27
NCCCn1c2cc(-c3cccc(OCCN)c3)ccc2c2ccc(-c3cccc(OCCN)c3)cc21 [Compound 151]	4.25
